Measured values published in patent US5369111A, “Modulator agent and use thereof” (University of Vermont, priority 1992, dated 1994).

Assays:
[1] = Clonogenic assay for cytotoxicity, MDR variant KB-V1; format: cell-based, human; settings: human, kb-v1 cells; read-out: non-toxic concentration limit
Description: The analogs were examined in a panel of tumor cell lines of both intrinsic and acquired drug resistance, as described in Table 1. The rat colon adenocarcinoma cell lines RCC-2 and RCC-5 (ref. 13) were maintained in Ham's F12 medium supplemented with 5% heat-inactivated, fetal bovine serum (Sterile Systems. Hyclone, Logan, Utah). The two rat colon cancer cell lines differ in their degree of cellular differentiation; whereas the RCC-2 cell line is undifferentiated, the RCC-5 cell line is highly mucinous. The human epidermoid carcinoma cell line KB-3-1 and its MDR variant KB-Vl, selected by VBL treatment (ref. 14; courtesy of M. Gottesman. National Cancer Institute), was maintained in DMEM medium supplemented with 10%, heat-inactivated, fetal bovine serum. The murine sarcoma cell line […] and its MDR strains A3 and A10 selected by ADM treatment (ref. 15; courtesy of T. Tritton, Dept. Pharmacology, Univ. Vermont). were maintained in DMEM medium supplemented with 10% heat-inactivated, horse serum (Hazelton Biolog. Lenexa, Kans.). Stock cultures were subcultured twice weekly upon reaching the late exponential phase of population growth: population doubling times were 18-24 h. Antibiotics were not used in stock or experimental cultures. The MDR cell strains were grown in drug-free media for 48 h prior to experimental use.
(§1) Mid-exponential cultures were used for all assays. The RCC-2 and RCC-5 cell lines were seeded into 24-well plates at 2×10^4 cells/well and allowed to attach to the substratum for 16-18 h prior to treatment. The S180 cell lines were seeded into culture tubes at 1×10^5 cells/ml and treated immediately. Cytotoxicity was determined by quantitation of population growth after 72 h incubation by electronic particle counter (Coulter Electronics, Hialeah, Fla.). The human tumor cell lines were used in a clonogenic assay for cytotoxicity. Cells were seeded at 300 cells/dish, incubated overnight and then treated. Colonies were scored 7-11 days later. In all assays of analog modulation of drug sensitivity, the analog was added minutes prior to the addition of cytotoxic drug.
(§2) FIG. 10 represents the potency of the analog C-20'-deoxy deethyl vincovaline as a modulator of the drug sensitivity of various cell lines: the parental S180 cell line: the two rat colon cancer cell lines, RCC-2 and RCC-5; and the human epidermoid carcinoma cell line KB-3-1 and its MDR cell strain KB-V1, which expresses very high levels of drug resistance (200-500 fold). The enhancement of sensitivity was calculated as the sensitivity index =IC50 of the drug alone divided by the IC50 of the drug+analog. The drugs examined were ADM (o), VBL (Δ), and VCR (.quadrature.). The cytotoxicity of drug and analog treatments in the KB cell lines were measured by cloning efficiencies. The arrows denote the non-toxic concentration limit of the analog in each cell line.

[2] = Viability (MTT test) of P388 S cells; format: cell-based; settings: mouse; sensitive cells P388 S, 24 h and 48 h; read-out: concentrations up to which no cytotoxicity is seen
Description: (§3) The sensitization of C-20'-deoxy C-20'-deethyl vincovaline (D-DEV) has been tested on sensitive and resistants P388 cell lines originating from mouse lympnoma.
(§4) The resistance to anticancerous drug has been induced on DBA2 mouses bearing P388 cells ascites and maintained by treatment with adryamycin.
(§5) This study has been carried out at least in triplicate.

[3] = Viability (MTT test) of P388 R cells; format: cell-based, mouse; settings: mouse; resistant cells P388 R, 24 h and 48 h; read-out: concentrations up to which no cytotoxicity is seen
Description: as §3, §4, §5

S180 cells, parental = assay: Modulation of intrinsic drug resistance, parental S180; format: cell-based, murine; settings: S180 parental
Summary of the method: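 Parental S180 cells at 1×10^5 cells/ml treated with modulator (10^-6 M up to non-toxic IC10-20 or solubility limit) added minutes before VBL, VCR or ADM; growth counted electronically after 72 h. Sensitivity index = drug IC50 alone / drug IC50 with modulator; duplicates from two experiments.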

RCC-5 cells = assay: Modulation of intrinsic drug resistance, RCC-5; format: cell-based, rat; settings: VCR
Method: as §1
*calculated as the IC50 of the drug alone divided by the IC50 o
the [drug modulator] combination. Data are presented from tretments with
the nontoxic concentration limit of each analog as noted.
FIG. 9 represents the modulation of VCR sensitivity in the RCC-12 (A) and RCC-5 (B) cell lines by the analog C-20'-deoxy deethyl vincovaline. Population growth was determined after 72 hours incubation in the absence (o), or presence of 10 μM (o), 20 μM (Δ), or 50 μM of analog. Data presented are from a typical experiment.

KB-3-1 cells = assay: Modulation of drug sensitivity, KB-3-1; format: cell-based, human; settings: ADM, VBL, VCR
Method: as §1
as §2, with “The drugs examined were ADM (o), VBL (Δ), and VCR (.quadrature.).” left out, “The arrows denote the non-toxic concentration limit of the analog in each cell line.” left out

KB-V1 cells = assay: Modulation of acquired resistance, KB-V1; format: cell-based, human; settings: at the non-toxic concentration limit of 20 μM
Method: as §1
as §2, with “The drugs examined were ADM (o), VBL (Δ), and VCR (.quadrature.).” left out, “The arrows denote the non-toxic concentration limit of the analog in each cell line.” left out

S180/A10 cells = assay: Modulator potency in MDR cells: reversal of acquired resistance, S180/A10; format: cell-based, murine
Summary of the method: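 S180/A3 and S180/A10 MDR cells at 1×10^5 cells/ml exposed to a modulator concentration range, added minutes before VBL, VCR or ADM at parental-cell IC70s. Growth counted by electronic particle counter after 72 h. Value is the minimal modulator concentration restoring 70% growth inhibition; mean of 2-3 experiments.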

P388 R cells = assay: Sensitization of P388 R cells to antitumorous agents; format: cell-based, mouse
Method: as §3, §4
The P388 R cells are incubated at 37° C. during 24 hours with constant subtoxic concentrations of antitumoral drugs and increasing concentrations of modulators from 1 to 100 μM.

CC[C@]12C=CCN3CC[C@@]4(c5cc([C@]6(C(=O)OC)C[C@H]7CCCN(CCc8c6[nH]c6ccccc86)C7)c(OC)cc5N(C)[C@H]4[C@@](O)(C(=O)OC)[C@@H]1OC(C)=O)[C@@H]32 [analog n° 352, C-20'-deoxy-20'-deethyl-C-14', 16'-epi-VBL]
MNTC [1]: 20 µM
MNTC [2]: ≥ 25 µM
MNTC [3]: ≥ 100 µM
maximum degree of sensitization to ADM (S180 cells, parental; ADM): 5.5 fold
maximum degree of sensitization to VBL and VCR (S180 cells, parental; VBL and VCR): 2.3-2.7 fold
maximum sensitization to VCR (RCC-5 cells; RCC-5): 28 fold
concentration overcoming the greater intrinsic resistance of RCC-5 to VCR (RCC-5 cells; RCC-5 compared to RCC-2): 10 to 20 µM
sensitization to all three drugs (KB-3-1 cells): 3-5 fold
sensitization to VCR only (KB-V1 cells): 6 fold
reversal of high level ADM resistance (in words) (S180/A10 cells; A10 cells, 90 fold ADM resistance): can reverse high level (90-fold) ADM resistance in MDR cells
reversal of high level ADM resistance (S180/A10 cells; ADM, 90-fold resistance, A10): 80%
percentage of cellular survival (P388 R cells; modulator 30 μM, ADM 1.72 μM, 1440 min): 50%
modulator effect on P388 R cells with ADM (in words) (P388 R cells; modulator 100 μM, ADM 0.17 μM): no effect
